Read-outs that look alike come from different tables or passages of the source.

Assay [1] deals with HCT 116 (colon carcinoma). Particulars: read-out: IC50, the concentration that causes 50% growth inhibition, HCT116, 72 h incubation, MTT. The method, then: The described assay was used to test the effects of test compounds on the proliferation of various human tumor cell lines, whereby cytostatic and cytotoxic effects on cells can be differentiated. The experiments were carried out on human cell lines, which were derived from 3 tumor types: MCF-7 (breast carcinoma), HCT 116 (colon carcinoma), H 460 (lung carcinoma).
Cell lines were cultured as monolayers and maintained in Dulbecco's modified Eagle medium (DMEM), supplemented with 10% fetal bovine serum (FBS), 2 mM L-glutamine, 100 U/ml penicillin and 100 μg/ml streptomycin in a humidified atmosphere with 5% CO2 at 37° C.
The cell lines were inoculated onto a series of standard 96-well microtiter plates on day 0, at 1×10^4 to 3×10^4 cells/ml, depending on the doubling times of the specific cell line. Test compounds were added next day to the cell lines in five consecutive 10-fold dilutions (10^−8 to 10^−4 M) and incubated for a further 72 hours. Working dilutions were freshly prepared on the day of testing. The solvent (DMSO) was also tested for eventual inhibitory activity by adjusting its concentration to be the same as in working concentrations.
For each cell line one of the plates was left in the dark, while the other was irradiated in a Luzchem reactor (6 lamps 350 nm, 5 min; or 6 lamps 420 nm, 15 min, visible light, 15 min) four hours after the addition of the test compounds and subsequently 24 h and 48 h after the first irradiation, as described above. After 72 hours of incubation the cell growth rate was evaluated by performing the MTT assay (Mossman, Methods Immunol, 1983, 65, 55-63), which detects dehydrogenase activity in viable cells. The MTT Cell Proliferation Assay is a colorimetric assay system, which measures the reduction of a tetrazolium component (MTT) into an insoluble formazan produced by mitochondria of viable cells. For this purpose the substance treated medium was discarded and MTT was added to each well in concentration of 20 μg/40 μl. After four hours of incubation the precipitates were dissolved in 160 μl of dimethylsulphoxide (DMSO). The absorbance (OD, optical density) was measured on a microplate reader at 570 nm. The absorbance is directly proportional to the cell viability. The percentage of growth (PG) of the cell lines was calculated according to one of the following two equations (according to the National Cancer Institute protocols, www.dtp.nci.nih.gov):
If (mean ODtest-mean ODtzero)≥0 then • PG=100×(mean ODtest-mean ODtzero)/(mean ODetrl-meanODtzero).
If (mean ODtest-mean ODtzero)<0 then: • PG=100×(mean ODtest-mean ODtzero)/ODtzero. where:
Mean ODtzero=the average of optical density measurements before exposure of cells to the test compound.
Mean ODtest=the average of optical density measurements after the desired period of time.
Mean ODetrl=the average of optical density measurements after the desired period of time with no exposure of cells to the test compound.
Each test point was performed in quadruplicate in three individual experiments. The results were expressed as IC50, a concentration necessary for 50% of proliferation inhibition. Each result is a mean value from three separate experiments. The IC50 measures the growth inhibitory power of the test agent and represents the concentration that causes 50% growth inhibition. […] Therefore, a “real” value for any of the response parameters is obtained only if at least one of the tested drug concentrations falls above, and likewise at least one falls below the respective reference value. If however, for a given cell line or test agent all of the tested concentrations produce PGs exceeding the respective reference level of effect (e.g. PG value of 50%), then the highest tested concentration is assigned as the default value. In the screening data report the default value is preceded by a “>” sign.

The next assay concerns MCF-7 (breast carcinoma). Put plainly: Antiproliferative MTT assay, MCF-7. The class given is cell-based, human. Particulars: 72 h incubation, read-out: IC50, the concentration that causes 50% growth inhibition. The text has this: (§1) The absorbance is directly proportional to the cell viability.
The next assay relates to H 460 (lung carcinoma). Put plainly: Antiproliferative MTT assay, H 460. The class given is cell-based, human. Conditions: 72 h incubation, read-out: IC50, the concentration that causes 50% growth inhibition.
Source text: as §1
For orientation: Formazan colour is commonly taken as a measure of viable cells.

In the case of “4,4-difluoro-8-[3-(N,N-dimethylammoniummethyl)-4-hydroxyphenyl]-4-bora-3a,4a-diaza-s-indacene hydrochloride [Example 2]”, the IC50 is over 100 µM in assay [1] (Not irrad.); over 100 µM in assay [1] (irradiated 350 nm 3 × 5 min); 37 ± 7 µM in assay [1] (irradiated 420 nm 3 × 15 min); 89 ± 6 µM in assay [1] (irradiated VIS 3 × 15 min); at least 100 µM in the assay on MCF-7 (breast carcinoma) (Not irrad.); at least 100 µM in the assay with MCF-7 (breast carcinoma) (irradiated 350 nm 3 × 5 min). Besides, the IC50 in the assay on MCF-7 (breast carcinoma) (irradiated 420 nm 3 × 15 min) was 25 ± 6 µM; with MCF-7 (breast carcinoma) (irradiated VIS 3 × 15 min), 32 ± 25 µM; with H 460 (lung carcinoma) (Not irrad.), over 100 µM; in the assay on H 460 (lung carcinoma) (irradiated 350 nm 3 × 5 min), over 100 µM; in the assay with H 460 (lung carcinoma) (irradiated 420 nm 3 × 15 min), 30 ± 18 µM; in the assay on H 460 (lung carcinoma) (irradiated VIS 3 × 15 min), 43 ± 6 µM.

For the substance “4,4-difluoro-1,3,5,7-tetramethyl-8-[3-(N,N-dimethylammoniummethyl)-4-hydroxyphenyl]-4-bora-3a,4a-diaza-s-indacene hydrochloride [Example 4]”, the IC50 in assay [1] (Not irrad.) turned out to be 16 ± 1 µM; in assay [1] (irradiated 350 nm 3 × 5 min), 11 ± 2 µM; in assay [1] (irradiated 420 nm 3 × 15 min) it was 2 ± 0.4 µM; in assay [1] (irradiated VIS 3 × 15 min) it was 2 ± 0.1 µM; with MCF-7 (breast carcinoma) (Not irrad.), 13 ± 0.1 µM; in the assay on MCF-7 (breast carcinoma) (irradiated 350 nm 3 × 5 min), 10 ± 0.6 µM. Also, the IC50 in the assay on MCF-7 (breast carcinoma) (irradiated 420 nm 3 × 15 min) came to 2 ± 0.2 µM; in the assay on MCF-7 (breast carcinoma) (irradiated VIS 3 × 15 min), 1.6 ± 0.01 µM; in the assay with H 460 (lung carcinoma) (Not irrad.), 13 ± 0.2 µM; in the assay on H 460 (lung carcinoma) (irradiated 350 nm 3 × 5 min), 5 ± 3 µM; in the assay with H 460 (lung carcinoma) (irradiated 420 nm 3 × 15 min), 1 ± 0.1 µM; in the assay on H 460 (lung carcinoma) (irradiated VIS 3 × 15 min), 0.9 ± 0.2 µM.

For “4,4-difluoro-1,5,7-trimethyl-343-(N,N-dimethylammoniummethyl)-4-hydroxyphenyl)-8-phenyl-4-bora-3a,4a-diaza-s-indacene hydrochloride [Example 7]”, the IC50 in assay [1] (Not irrad.) amounted to 27 µM; in assay [1] (irradiated VIS 3 × 15 min), 2 µM; in the assay with MCF-7 (breast carcinoma) (Not irrad.), 22 ± 12 µM; in the assay on MCF-7 (breast carcinoma) (irradiated VIS 3 × 15 min), 2 ± 0.7 µM; in the assay with H 460 (lung carcinoma) (Not irrad.), 20 ± 5 µM; with H 460 (lung carcinoma) (irradiated VIS 3 × 15 min) it was 2 ± 0.7 µM.

These data come from patent US11103519B2, “Quinone-methide precursors with bodipy chromophore, method of preparation, biological activity and application in fluorescent labelling” (Rudjer Boskovic Institute, priority 2016, dated 2021).
